What was measured:
Format in all cases: cell-based, Picochlorum
[1] = system: mutant algae (NCAR-1 and NCAR-2); experiment: Growth of algae culture (OD at 750 nm); settings: for growth of mutant algae as compared to wild type of the algae: about 2 ppm and about 5 ppm, FIGS. 7-9
Source text: (§1) FIG. 4 A) illustrates a plot describing comparative growth of wild type of the algae and mutant algae (NCAR-1 and NCAR-2) at different concentrations of Niclosamide; and B) depicts an image of cultures showing no growth of wild type algae (WT) and growth of mutant algae (NCAR-1 and NCAR-2) at 10 ppm of Niclosamide, respectively.

[2] = system: mutant algae (NCAR-1 and NCAR-2); experiment: Volumetric productivity (AFDW mg/L/day); settings: about 2 ppm and about 5 ppm; for volumetric productivity of mutant algae as compared to wild type of the algae: FIGS. 10-12
Source text: The term ‘productivity’ as used herein refers to amount of product the algae can produce under defined conditions. Productivity can be measured in grams of dry weight of algae. Alternatively, productivity can be measured in terms of the rate of production of a desirable product or product(s) such as lipid, protein, carbohydrate and/or any other biomolecule produced by the algae. The term ‘volumetric productivity’ refers to increase in biomass weight of algae/L/day.
Thus, clearly establishing that the mutant algae is resistant to salicylanilide based drug, such as Niclosamide as compared to wild type of the algae.

WT cells = experiment: Killing of WT cells on EMS exposure (mutagenesis); settings: 0.6 M, about 1 hours, about 1 × 10^8 /ml cells
Protocol: About 1 × 10^8 /ml WT cells were treated with 0.6 M EMS for about 1 hours. […] The alive cells were allowed to recover in dark overnight and then in low light for about a week. Upon recovering the mutant algae population was exposed to about 0.5 ppm of Niclosamide and enriched in presence of Niclosamide for several generations. As the growth rate in the presence of Niclosamide increased, the selection pressure was increased to about 1 ppm and then to about 2 ppm of Niclosamide, respectively. The mutant pool was grown in presence of about 2 ppm Niclosamide (for about 300 generations, about 1 year) till the growth rates became constant. At this stage, FACS sorting of the Niclosamide resistant mutant pool was performed to get individual Niclosamide resistant mutant algae. About 100 individual mutants were isolated and were further checked for growth in the presence of about 2 ppm Niclosamide. The list was narrowed down to about 10 stable mutants after about 2 rounds of growth screening. Finally, after about 10 rounds of repeated growth screening in the presence of about 2 ppm Niclosamide, stable mutant algae (NCAR-1 & NCAR-2) were selected, based on the stable drug resistant phenotype and consistent growth & productivity.

[3] = system: wild type of the algae (WT); experiment: Growth of algae culture (OD at 750 nm)
Source text: FIG. 1 A) illustrates a plot describing no growth of wild type of the algae (WT) in presence of Niclosamide (OD at 750 nm); and B) depicts an image of cultures showing no growth of wild type algae in presence of Niclosamide.
as §1

[4] = system: mutant algae (NCAR-1 and NCAR-2); experiment: Photosynthetic efficiency/health; settings: about 1 ppm, about 2 ppm and about 5 ppm, FIG. 6
Source text: FIG. 6 illustrate plots describing photosynthetic efficiency/health of- A) wild type of the algae (WT); B) mutant algae (NCAR-1); and C) mutant algae (NCAR-2) at different concentrations of Niclosamide (last day is 7th Day).
The improved photosynthetic efficiency of the mutant algae explicitly implies resistance of the mutant algae to salicylanilide based drug, such as Niclosamide and that the wild type of the algae is not resistant to the salicylanilide based drug.

mutant algae NCAR-2 = experiment: Total intracellular ATP, bioluminescence (luciferase) assay
Protocol: (§2) Total intracellular ATP levels in wild type algae and the mutant algae were measured using molecular probes bioluminescence assay kit. The assay is based on luciferase’s requirement for ATP in producing light (emission maximum of about 560 nm at pH 7.8) from the reaction
(§3) Niclosamide was added to mid log cells (OD750 at about 0.3) of both wild type algae and mutant algae and samples (OD = 10^8 cells) were collected after about 12 hours for ATP measurement. About 1 ppm of Oligomycin A (inhibitor of ATP synthase) was used as positive control to inhibit ATP synthesis. intracellular ATP concentration in mutant algae and wild type of the algae in presence of Niclosamide was described in Table 3.

wild type algae (WT) = experiment: as above; settings: about 12 hours; for ATP conc. / bioluminescence reading, Average / bioluminescence reading, replicate 1 / bioluminescence reading, replicate 2: 1 ppm drug; for ATP depletion / lower ATP levels: about 1 ppm drug
Protocol: as §2, §3

mutant algae NCAR-1 = experiment: as above
Protocol: as §2, §3

[5] = NCAR-2, 1 ppm drug, about 12 hours
[6] = NCAR-1, 1 ppm drug, about 12 hours

SMILES	growth of mutant algae as compared to wild type of the algae [1]	volumetric productivity of mutant algae as compared to wild type of the algae [2]	ATP conc. (wild type algae (WT))	bioluminescence reading, Average (wild type algae (WT))	bioluminescence reading, replicate 1 (wild type algae (WT))	bioluminescence reading, replicate 2 (wild type algae (WT))	ATP depletion / lower ATP levels (wild type algae (WT))	other results
Cc1cc(C(C#N)c2ccc(Cl)cc2)c(Cl)cc1NC(=O)c1cc(I)cc(I)c1O (stereo not shown) [Closantel, closantel]	improved growth	improved volumetric productivity	–	–	–	–	–	–
CCOS(C)(=O)=O [EMS, ethyl methanesulfonate]	–	–	–	–	–	–	–	killing of the WT cells (WT cells): about 50%
O=C(Nc1ccc([N+](=O)[O-])cc1Cl)c1cc(Cl)ccc1O [Niclosamide, niclosamide]	improved growth	improved volumetric productivity	~ 28.80 nM	174.5	204	145	about 90%	growth of wild type of the algae ([3]; 10 ppm, FIG. 4B): no growth; growth of wild type of the algae (OD at 750 nm) ([3]; in presence of drug, FIG. 1): no growth; photosynthetic efficiency/health of mutant algae as compared to wild type of the algae [4]: improved photosynthetic efficiency/health; ATP conc. (mutant algae NCAR-2; [5]): 138.55 nM; bioluminescence reading, Average (mutant algae NCAR-2; [5]): 839.5; bioluminescence reading, replicate 1 (mutant algae NCAR-2; [5]): 890; bioluminescence reading, replicate 2 (mutant algae NCAR-2; [5]): 789; ATP depletion (mutant algae NCAR-2; NCAR-2, after about 12 hours of drug addition): about 50%; ATP conc. (mutant algae NCAR-1; [6]): 125.68 nM; bioluminescence reading, Average (mutant algae NCAR-1; [6]): 761.5; bioluminescence reading, replicate 1 (mutant algae NCAR-1; [6]): 835; bioluminescence reading, replicate 2 (mutant algae NCAR-1; [6]): 688; ATP depletion (mutant algae NCAR-1; NCAR-1, after about 12 hours of drug addition): about 50%; growth of mutant algae ([1]; 10 ppm, FIG. 4B): evident growth; volumetric productivity of mutant algae ([2]; about 1 ppm, FIG. 5): equal to or greater than the volumetric productivity of the wild type of the algae in absence of Niclosamide
CC[C@H]1/C=C/C=C/C[C@@H](C)[C@H](O)[C@@](C)(O)C(=O)[C@@H](C)[C@H](O)[C@@H](C)C(=O)[C@@H](C)[C@H](O)[C@@H](C)/C=C/C(=O)O[C@@H]2[C@H](C)[C@H](CC1)O[C@]1(CC[C@H](C)[C@H](C[C@@H](C)O)O1)[C@H]2C [Oligomycin, Oligomycin A]	–	–	178.49 nM	1081.5	1181	982	about 40%	–
O=C(Nc1cc(Cl)cc(Cl)c1O)c1c(O)c(Cl)cc(Cl)c1Cl [Oxyclozanide, oxyclozanide]	improved growth	improved volumetric productivity	–	–	–	–	–	–
O=C(Nc1ccc(Oc2ccc(Cl)cc2)c(Cl)c1)c1cc(I)cc(I)c1O [Rafoxanide, rafoxanide]	improved growth	improved volumetric productivity	–	–	–	–	–	–
